Test results as given in patent US8415379B2, “Pyridines” (Hoffmann-La Roche Inc., priority 2009, dated 2013).

biological target: T1, GABA A α5 (human receptors of composition α5β3γ2) (Homo sapiens, UniProt P18507+P31644); assay: [3H]flumazenil competition binding assay, human GABA A α5β3γ2 receptors in HEK293 cells; settings: displacement of 0.5 nM [3H]flumazenil, HEK293 membranes, 1 hour at 4° C., means of two determinations, read-out: hKi GABA A α5
T1 construct: expressed in transfected cells; host or cells: HEK293 cells, transiently transfected; membrane homogenates used
Procedure: The affinity of compounds at GABA A receptor subtypes was measured by competition for [^3H]flumazenil (85 Ci/mmol; Roche) binding to HEK293 cells expressing rat (stably transfected) or human (transiently transfected) receptors of composition α1β3γ2, α2β3γ2, α3β3γ2 and α5β3γ2.
Cell pellets were suspended in Krebs-tris buffer (4.8 mM KCl, 1.2 mM CaCl2, 1.2 mM MgCl2, 120 mM NaCl, 15 mM Tris; pH 7.5; binding assay buffer), homogenized by polytron for ca. 20 sec on ice and centrifuged for 60 min at 4° C. (50000 g; Sorvall, rotor: SM24=20000 rpm). The cell pellets were re-suspended in Krebs-tris buffer and homogenized by polytron for ca. 15 sec on ice. Protein was measured (Bradford method, Bio-Rad) and aliquots of 1 mL were prepared and stored at −80° C.
Radioligand binding assays were carried out in a volume of […] (96-well plates) which contained […] of cell membranes, [^3H]flumazenil at a concentration of 1 nM for α1, α2 and α3 subunits and 0.5 nM for α5 subunits and the test compound in the range of […]. Nonspecific binding was defined by 10^−5 M diazepam and typically represented less than 5% of the total binding. Assays were incubated to equilibrium for 1 hour at 4° C. and harvested onto GF/C uni-filters (Packard) by filtration using a Packard harvester and washing with ice-cold wash buffer (50 mM Tris; pH 7.5). After drying, filter-retained radioactivity was detected by liquid scintillation counting. Ki values were calculated using Excel-Fit (Microsoft) and are the means of two determinations.

| Compound | Ki |
| --- | --- |
| CC[C@@H](CO)NC(=O)c1ccc(OCc2c(-c3ccc(F)cc3)noc2CO)cn1 [Example 34, 5-[3-(4-Fluoro-phenyl)-5-hydroxymethyl-isoxazol-4-ylmethoxy]-pyridine-2-carboxylic acid ((S)-1-hydroxymethyl-propyl)-amide] | 8.3 nM |
| Cn1cc(NC(=O)c2ccc(OCc3c(-c4ccc(F)cc4)noc3CO)cn2)cn1 [Example 35, 5-[3-(4-Fluoro-phenyl)-5-hydroxymethyl-isoxazol-4-ylmethoxy]-pyridine-2-carboxylic acid (1-methyl-1H-pyrazol-4-yl)-amide] | 3.4 nM |
| CC(C)(C)NC(=O)c1ccc(OCc2c(-c3ccc(F)cc3)noc2CO)cn1 [Example 36, 5-[3-(4-Fluoro-phenyl)-5-hydroxymethyl-isoxazol-4-ylmethoxy]-pyridine-2-carboxylic acid tert-butylamide] | 74.2 nM |
| O=C(c1ccc(OCc2c(-c3ccc(F)cc3)noc2CO)cn1)N1CCC(F)(F)CC1 [Example 37, (4,4-Difluoro-piperidin-1-yl)-{5-[3-(4-fluoro-phenyl)-5-hydroxymethyl-isoxazol-4-ylmethoxy]-pyridin-2-yl}-methanone] | 10.2 nM |

Other lines, results leading:

| Ki | Compound |
| --- | --- |
| 3.4 nM | O=C(NN1CCCC1)c1ccc(OCc2c(-c3ccc(F)cc3)noc2CO)cn1 [Example 38, 5-[3-(4-Fluoro-phenyl)-5-hydroxymethyl-isoxazol-4-ylmethoxy]-pyridine-2-carboxylic acid pyrrolidin-1-ylamide] |
| 0.8 nM | O=C(NN1CCOCC1)c1ccc(OCc2c(-c3ccc(F)cc3)noc2CO)cn1 [Example 39, 5-[3-(4-Fluoro-phenyl)-5-hydroxymethyl-isoxazol-4-ylmethoxy]-pyridine-2-carboxylic acid morpholin-4-ylamide] |
